This assay relates to Vγ9Vδ2 T lymphocytes. Briefly: CFSE dilution proliferation assay in PBMC culture, flow cytometry. The format is cell-based, human. To be noted: 100 nM BrHPP; six days culture of PBMC; FIG. 1A. The procedure: Fresh blood samples were collected from healthy donors, and PBMC were prepared on a Ficoll-Paque density gradient (Amersham Biosciences AB, Upssala, Sweden) by centrifugation (800 g, 30 min at room temperature).
Cell cultures were performed in complete medium: RPMI 1640 supplemented by penicillin 100 UI/ml, streptomycin 100 μg/ml, L-glutamin 2 mM, sodium pyruvate 1 mM and 10% FCS.
PBMC or PBL were labeled with 0.125 μM CFSE (Invitrogen, France) for 8 min at 37° C. and cultured in 96-well plates (3.10^5 cells per well) in 200 μl of complete medium with or without BrHPP [100 nM], IL-33 [0-1000 ng/ml] and with or without rhIL-2 [10 UI/ml] (Sanofi Aventis, France). After six days in culture CFSE dilution was evaluated in γδ T cells (CD3^+ γ9 TCR cells) by flow cytometry.
The IL-33 forms used in this example was the natural cleavage product of human IL-33 (IL-33 aa 95-270) and the truncated form of human IL-33 (IL-33 aa 112-270).
Anti-TCR γ9-APC and anti-CD3-Pacific blue were used to select Vγ9Vδ2 T lymphocytes by flow cytometry.
We studied the effect of IL-33 in combination with the specific phosphoantigen, BrHPP, on the proliferation of human Vγ9Vδ2 T lymphocytes. […] After six days in culture, the proliferation of Vγ9Vδ2 T lymphocytes was analyzed by the reduction of the CFSE fluorescence intensity on the Vγ9Vδ2 T lymphocytes gated by flow cytometry.
(A flow cytometer gives signals particle by particle.)

Regarding `CC(O)(CBr)CCOP(=O)(O)OP(=O)(O)O` (stereo not shown) [BrHPP], the “proliferation of Vγ9Vδ2 T lymphocytes (CFSE dilution)” value was “induces the proliferation”.
